Results from patent US20100298141A1, “SUBSTITUTED PYRIDINE N-OXIDE HERBICIDES” (E. I. DU PONT DE NEMOURS AND COMPANY, priority 2007, published 2010).

What was measured:
[1] = test system: crabgrass; assay: Test A pre-/postemergence greenhouse test; assay type: in vivo, Digitaria sanguinalis; conditions: for Crabgrass, Large plant response rating: 0 to 100 scale; for Plant response rating, Crabgrass, Large: 0 to 100 scale where 0 is no effect and 100 is complete control
How it was run: (§1)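 Greenhouse herbicide screen, pre- and postemergence in parallel. Soil: loam plus sand. Formulation: non-phytotoxic solvent mix with surfactant. Postemergence stage: one to two leaves, 2–10 cm height. Evaluation: visual injury, compared with untreated controls, about 10 days after treatment.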

[2] = test system: giant foxtail; assay: Test A pre-/postemergence greenhouse test; assay type: in vivo, Setaria faberi; conditions: for Foxtail, Giant plant response rating: 0 to 100 scale; for Plant response rating, Foxtail, Giant: 0 to 100 scale where 0 is no effect and 100 is complete control
How it was run: as §1

[3] = test system: morningglory; assay: Test A pre-/postemergence greenhouse test; assay type: in vivo, Ipomoea spp.; conditions: for Morningglory plant response rating: 0 to 100 scale; for Plant response rating, Morningglory: 0 to 100 scale where 0 is no effect and 100 is complete control
How it was run: as §1

[4] = test system: wheat; assay: Test A pre-/postemergence greenhouse test; assay type: in vivo, Triticum aestivum; conditions: for Wheat plant response rating: 0 to 100 scale; for Plant response rating, Wheat: 0 to 100 scale where 0 is no effect and 100 is complete control
How it was run: as §1

[5] = test system: downy brome; assay: Test C pre-/postemergence test; assay type: in vivo, Bromus tectorum
How it was run: (§2)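 Test chemicals were formulated with surfactant in a non-phytotoxic solvent and sprayed both on freshly planted seeds (preemergence) and on 1- to 4-leaf plants of 2–18 cm (postemergence). Flooded-paddy pots received compound directly into 3 cm of standing water, maintained for the test.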

[6] = test system: cocklebur; assay: Test C pre-/postemergence test; assay type: in vivo, Xanthium strumarium
How it was run: as §2

[7] = test system: corn; assay: Test C pre-/postemergence test; assay type: in vivo, Zea mays
How it was run: as §2

[8] = test system: woolly cupgrass; assay: Test C pre-/postemergence test; assay type: in vivo, Eriochloa villosa
How it was run: as §2

[9] = test system: giant foxtail; assay: Test C pre-/postemergence test; assay type: in vivo, Setaria faberii
How it was run: as §2

[10] = test system: Goosegrass; assay: Test C pre-/postemergence test; assay type: in vivo, Eleusin indica
How it was run: as §2

[11] = test system: johnsongrass; assay: Test C pre-/postemergence test; assay type: in vivo, Sorghum halepense
How it was run: as §2

[12] = test system: lambsquarters; assay: Test C pre-/postemergence test; assay type: in vivo, Chenopodium album
How it was run: as §2

[13] = test system: morningglory; assay: Test C pre-/postemergence test; assay type: in vivo, Ipomoea coccinea
How it was run: as §2

[14] = test system: yellow nutsedge; assay: Test C pre-/postemergence test; assay type: in vivo, Cyperus esculentus
How it was run: as §2

[15] = test system: common ragweed; assay: Test C pre-/postemergence test; assay type: in vivo, Ambrosia elation
How it was run: as §2

[16] = test system: soybean; assay: Test C pre-/postemergence test; assay type: in vivo, Glycine max
How it was run: as §2

[17] = test system: umbrella sedge; assay: Test C flooded paddy test; assay type: in vivo, Cyperus difformis; conditions: Flood
How it was run: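 Greenhouse pots flooded to 3 cm above soil at time of treatment received compound via the water, which stayed at that level.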

[18] = Postemergence, 125 g ai/ha, 0 is no effect, 100 is complete control
[19] = Postemergence, 500 g ai/ha, 0 is no effect, 100 is complete control
[20] = Preemergence, 125 g ai/ha, 0 no effect, 100 complete control
[21] = 62 g ai/ha, Preemergence, scale 0 to 100
[22] = Preemergence, 31 g ai/ha, scale 0 to 100 (0 no effect, 100 complete control)
[23] = preemergence, 125 g ai/ha, scale 0 (no effect) to 100 (complete control)
[24] = 250 g ai/ha, scale 0 to 100, 0 no effect, 100 complete control, 13 to 15 days
[25] = Postemergence, 62 g ai/ha, scale 0 to 100, 0 no effect, 100 complete control
[26] = Postemergence, 125 g ai/ha, scale 0 to 100, 0 no effect, 100 complete control
[27] = Postemergence, 250 g ai/ha, scale 0 to 100, 0 no effect, 100 complete control

## Cc1cc[n+]([O-])c([S+]([O-])Cc2c(C(F)(F)F)nn(C)c2OCC(F)(F)F)c1 (racemic) [Compound 30]
[1]; [18]
  Crabgrass, Large plant response rating: 70
[1]; [19]
  Crabgrass, Large plant response rating: 90
[1]; [20]
  Crabgrass, Large plant response rating: 100
[1]; Preemergence, 500 g ai/ha
  Plant response rating, Crabgrass, Large: 100
[2]; [18]
  Foxtail, Giant plant response rating: 80
[2]; [19]
  Foxtail, Giant plant response rating: 90
[2]; [20]
  Foxtail, Giant plant response rating: 100
[2]; Preemergence, 500 g ai/ha
  Plant response rating, Foxtail, Giant: 100
[3]; [18]
  Morningglory plant response rating: 70
[3]; [19]
  Morningglory plant response rating: 90
[3]; [20]
  Morningglory plant response rating: 100
[3]; Preemergence, 500 g ai/ha
  Plant response rating, Morningglory: 100
[4]; [18]
  Wheat plant response rating: 60
[4]; [19]
  Wheat plant response rating: 70
[4]; [20]
  Wheat plant response rating: 80
[4]; Preemergence, 500 g ai/ha
  Plant response rating, Wheat: 90
[5]; [21]
  Bromegrass, Downy plant response rating: 0
[5]; [22]
  Plant response rating, Bromegrass, Downy: 0
[5]; Preemergence, 250 g ai/ha
  Plant response rating (0 to 100), Bromegrass, Downy: 60
[5]; [23]
  Bromegrass, Downy plant response rating: 60
[6]; [21]
  Cocklebur plant response rating: 0
[6]; [22]
  Plant response rating, Cocklebur: 0
[6]; Preemergence, 250 g ai/ha
  Plant response rating (0 to 100), Cocklebur: 85
[6]; [23]
  Cocklebur plant response rating: 80
[7]; [21]
  Corn plant response rating: 40
[7]; [22]
  Plant response rating, Corn: 5
[7]; Preemergence, 250 g ai/ha
  Plant response rating (0 to 100), Corn: 98
[7]; [23]
  Corn plant response rating: 85
[8]; [21]
  Cupgrass, Woolly plant response rating: 100
[8]; [22]
  Plant response rating, Cupgrass, Woolly: 50
[8]; Preemergence, 250 g ai/ha
  Plant response rating (0 to 100), Cupgrass, Woolly: 100
[9]; [21]
  Foxtail, Giant plant response rating: 100
[9]; [22]
  Plant response rating, Foxtail, Giant: 100
[9]; Preemergence, 250 g ai/ha
  Plant response rating (0 to 100), Foxtail, Giant: 100
[10]; [21]
  Goosegrass plant response rating: 100
[10]; [22]
  Plant response rating, Goosegrass: 98
[10]; Preemergence, 250 g ai/ha
  Plant response rating (0 to 100), Goosegrass: 100
[11]; [21]
  Johnsongrass plant response rating: 100
[11]; [22]
  Plant response rating, Johnsongrass: 85
[11]; Preemergence, 250 g ai/ha
  Plant response rating (0 to 100), Johnsongrass: 100
[12]; [21]
  Lambsquarters plant response rating: 100
[12]; [22]
  Plant response rating, Lambsquarters: 100
[13]; [21]
  Morningglory plant response rating: 100
[13]; [22]
  Plant response rating, Morningglory: 100
[14]; [21]
  Nutsedge, Yellow plant response rating: 70
[14]; [22]
  Plant response rating, Nutsedge, Yellow: 65
[15]; [21]
  Ragweed plant response rating: 60
[15]; [22]
  Plant response rating, Ragweed: 0
[16]; [22]
  Plant response rating, Soybean: 60
[17]; 31 g ai/ha, scale 0 to 100 (0 no effect, 100 complete control)
  Plant response rating, Sedge, Umbrella: 80
[17]; 62 g ai/ha, scale 0 to 100, 0 no effect, 100 complete control, 13 to 15 days
  Plant response rating, Sedge, Umbrella: 100
[17]; 125 g ai/ha, scale 0 to 100, 0 no effect, 100 complete control, 13 to 15 days
  Plant response rating, Sedge, Umbrella: 100
[17]; [24]
  Plant response rating, Sedge, Umbrella: 100

## CCn1nc(C(F)(F)F)c(C(C)S(=O)(=O)c2cccc[n+]2[O-])c1OCC(F)(F)F (centres unmarked) [Compound 69]
[1]; Postemergence, 125 g ai/ha
  Plant response rating, Crabgrass, Large: 80
[1]; [19]
  Crabgrass, Large plant response rating: 90
[1]; [20]
  Crabgrass, Large plant response rating: 40
[1]; Preemergence, 500 g ai/ha
  Plant response rating, Crabgrass, Large: 100
[2]; Postemergence, 125 g ai/ha
  Plant response rating, Foxtail, Giant: 80
[2]; [19]
  Foxtail, Giant plant response rating: 100
[2]; [20]
  Foxtail, Giant plant response rating: 100
[2]; Preemergence, 500 g ai/ha
  Plant response rating, Foxtail, Giant: 100
[3]; Postemergence, 125 g ai/ha
  Plant response rating, Morningglory: 40
[3]; [19]
  Morningglory plant response rating: 70
[3]; [20]
  Morningglory plant response rating: 50
[3]; Preemergence, 500 g ai/ha
  Plant response rating, Morningglory: 100
[4]; Postemergence, 125 g ai/ha
  Plant response rating, Wheat: 50
[4]; [19]
  Wheat plant response rating: 60
[4]; [20]
  Wheat plant response rating: 50
[4]; Preemergence, 500 g ai/ha
  Plant response rating, Wheat: 90
[5]; Postemergence, 31 g ai/ha
  Plant response rating (0 to 100), Bromegrass, Downy: 0
[5]; [25]
  Plant response rating, Bromegrass, Downy: 0
[5]; [26]
  Plant response rating, Bromegrass, Downy: 10
[5]; [27]
  Plant response rating, Bromegrass, Downy: 45
[6]; Postemergence, 31 g ai/ha
  Plant response rating (0 to 100), Cocklebur: 0
[6]; [25]
  Plant response rating, Cocklebur: 0
[6]; [26]
  Plant response rating, Cocklebur: 0
[6]; [27]
  Plant response rating, Cocklebur: 0
[7]; Postemergence, 31 g ai/ha
  Plant response rating (0 to 100), Corn: 0
[7]; [25]
  Plant response rating, Corn: 0
[7]; [26]
  Plant response rating, Corn: 0
[7]; [27]
  Plant response rating, Corn: 0
[8]; Postemergence, 31 g ai/ha
  Plant response rating (0 to 100), Cupgrass, Woolly: 0
[8]; [25]
  Plant response rating, Cupgrass, Woolly: 0
[8]; [26]
  Plant response rating, Cupgrass, Woolly: 0
[8]; [27]
  Plant response rating, Cupgrass, Woolly: 0
[9]; Postemergence, 31 g ai/ha
  Plant response rating (0 to 100), Foxtail, Giant: 0
[9]; [25]
  Plant response rating, Foxtail, Giant: 0
[9]; [26]
  Plant response rating, Foxtail, Giant: 0
[9]; [27]
  Plant response rating, Foxtail, Giant: 60
[10]; Postemergence, 31 g ai/ha
  Plant response rating (0 to 100), Goosegrass: 0
[10]; [25]
  Plant response rating, Goosegrass: 0
[10]; [26]
  Plant response rating, Goosegrass: 0
[10]; [27]
  Plant response rating, Goosegrass: 40
[11]; Postemergence, 31 g ai/ha
  Plant response rating (0 to 100), Johnsongrass: 0
[11]; [25]
  Plant response rating, Johnsongrass: 0
[11]; [26]
  Plant response rating, Johnsongrass: 20
[11]; [27]
  Plant response rating, Johnsongrass: 40
[12]; Postemergence, 31 g ai/ha
  Plant response rating (0 to 100), Lambsquarters: 0
[12]; [25]
  Plant response rating, Lambsquarters: 0
[12]; [26]
  Plant response rating, Lambsquarters: 0
[12]; [27]
  Plant response rating, Lambsquarters: 0
[13]; Postemergence, 31 g ai/ha
  Plant response rating (0 to 100), Morningglory: 0
[13]; [25]
  Plant response rating, Morningglory: 0
[13]; [26]
  Plant response rating, Morningglory: 0
[13]; [27]
  Plant response rating, Morningglory: 0
[14]; Postemergence, 31 g ai/ha
  Plant response rating (0 to 100), Nutsedge, Yellow: 0
[14]; [25]
  Plant response rating, Nutsedge, Yellow: 0
[14]; [26]
  Plant response rating, Nutsedge, Yellow: 0
[14]; [27]
  Plant response rating, Nutsedge, Yellow: 0
[15]; Postemergence, 31 g ai/ha
  Plant response rating (0 to 100), Ragweed: 0
[15]; Postemergence, 62 g ai/ha
  Plant response rating (0 to 100), Ragweed: 0
[15]; [26]
  Plant response rating, Ragweed: 0
[15]; [27]
  Plant response rating, Ragweed: 0
[16]; Postemergence, 31 g ai/ha
  Plant response rating (0 to 100), Soybean: 0
[16]; Postemergence, 62 g ai/ha
  Plant response rating (0 to 100), Soybean: 30
[16]; [26]
  Plant response rating, Soybean: 30
[16]; [27]
  Plant response rating, Soybean: 35
[17]; 62 g ai/ha, scale 0 to 100 (0 no effect, 100 complete control)
  Plant response rating, Sedge, Umbrella: 100
[17]; [24]
  Plant response rating, Sedge, Umbrella: 100
